Measurements published in patent US5932555A (priority 1997, dated 1999).
≈ marks a conversion by molar mass, not a printed value. Read-outs that look alike come from different tables or passages of the source.

What was measured:
[1] = tested on: rejection of the transplant; conditions: as an immunosuppressive agent, prior art; cited from earlier work
[2] = prior art, depending on case; cited from earlier work
P388 [3] = assay: Cytotoxicity test on cultured tumor cell line P388 (MTT, 72 h); type: cell-based; conditions: Mus musculus, P388, 72 h, read-out: IC50 (growth inhibition)
Description: (§1) Cultured tumor cell lines P388 and P388/ADR were suspended in RPMI1640 medium containing 10% heat inactivated fetal calf serum (FCS) and 20 μM 2-mercaptoethanol whereby a cell suspension (5×10^4 cells/ml) was prepared.
72 hours thereafter, cell growth was measured by a calorimetric assay method using 3-(4,5-dimethyl-2-thiazolyl)-2,5-diphenyl-2H-tetrazolium bromide (MTT) as follows: 20 μl of 2 mg/ml MTT solution was added to each well and the cells were incubated for 4 hours at 37° C. Thereafter, 50 μl of 50% dimethylformamide solution containing 20% sodium dodecyl sulfate was added to each well and allowed to stand, so that the formed violet formazan crystal was dissolved, and its absorbance at 570 nm was measured in a microplate absorbance photometer (Immunoreader) and used as an indicator of the growth.
(§2) Degree of inhibition=[1-(absorbance in presence of sample)/(absorbance in
(§3) absence of sample)]×100 (1)

[4] = Repeated administration toxicity test (intraperitoneal); type: in vivo, mouse (CDF1); conditions: mouse, in vivo, ip, read-out: Fatality rate
Description: (§4) As the comparative control, test solutions of adriamycin were prepared in the same manner. […] The number with time of survived animals after administration and the average body weights on Days 0, 5, and 10 were determined.

CDF1 mice = assay: as above; type: in vivo, mouse (CDF1); conditions: for Body weight, Day 0: Day 0 (baseline); for Number of survived animals, Day 4 / Number of survived animals, Day 5 / Number of survived animals, Day 6 / Number of survived animals, Day 7 / Number of survived animals, Day 8 / Number of survived animals, Day 10: of 10
Description: as §4

[5] = tested on: adriamycin-resistant P388; assay: Cytotoxicity test on adriamycin-resistant P388 (P388/ADR) (MTT, 72 h); type: cell-based; conditions: Mus musculus, P388, 72 h, read-out: IC50 (growth inhibition)
Description: as §1
A sample examined was dissolved in methanol, then diluted with RPMI 1640 medium and subjected to serial 2-fold dilution starting at the concentration of 0.1 mg/ml. 180 μl of the cell suspension and 20 μl of the sample solution were added into a 96-well micro-titer plate and incubated at 37° C. in wet 5% CO2 gas/95% air. 72 hours thereafter, cell growth was measured by a calorimetric assay method using 3-(4,5-dimethyl-2-thiazolyl)-2,5-diphenyl-2H-tetrazolium bromide (MTT) as follows: 20 μl of 2 mg/ml MTT solution was added to each well and the cells were incubated for 4 hours at 37° C. Thereafter, 50 μl of 50% dimethylformamide solution containing 20% sodium dodecyl sulfate was added to each well and allowed to stand, so that the formed violet formazan crystal was dissolved, and its absorbance at 570 nm was measured in a microplate absorbance photometer (Immunoreader) and used as an indicator of the growth. The result was expressed in terms of the concentration of a sample at which growth was inhibited by 50% (IC50), which was determined from the relationship between sample concentrations and degrees of inhibition calculated using the following equation (1):
as §2, §3

P388 [6] = assay: Mouse in vivo antitumor test, P388 transplanted
Description: (§5) 2×10^5 cells of P388 or P388/ADR were inoculated intraperitoneally into each of CDF1 mice (male, each weighing 20 g, 10 animals/group), and from the next day, the test solution was administered at 10, 5, and 1 mg/kg body weight/day respectively by intraperitoneal injection of 200 μl sample at each concentration once a day for 10 successive days. The numbers with time of mice which survived after administration was counted and the average survival days and T/C (survival days of treated mice/survival days of control mice) were calculated. The average body weights after 10 days were also measured.

P388/ADR = assay: Mouse in vivo antitumor test, P388/ADR transplanted
Description: as §5

[7] = P388, 1 mg/kg/day i.p. × 10 days
[8] = P388, 5 mg/kg/day i.p. × 10 days
[9] = P388, 10 mg/kg/day i.p. × 10 days
[10] = P388/ADR, 1 mg/kg/day i.p. × 10 days
[11] = P388/ADR, 5 mg/kg/day i.p. × 10 days
[12] = P388/ADR, 10 mg/kg/day i.p. × 10 days

## C=CC[C@@H]1/C=C(\C)C[C@H](C)C[C@H](OC)[C@H]2O[C@@](O)(C(=O)C(=O)N3CCCC[C@H]3C(=O)O[C@H](/C(C)=C/[C@@H]3CC[C@@H](O)[C@H](OC)C3)[C@H](C)[C@@H](O)CC1=O)[C@H](C)C[C@@H]2OC [tacrorims (FK506)]
[1]
  immunosuppressive results: preferable results
[2]
  side effects: obstacles to the pancreas and kidney

## COc1cccc2c1C(=O)c1c(O)c3c(c(O)c1C2=O)C[C@@](O)(C(=O)CO)C[C@@H]3O[C@H]1C[C@H](N)[C@H](O)[C@H](C)O1 [Adriamycin]
P388 [3]
  IC50: 0.027 µg/mL (≈ 0.0497 µM)
[4]; 1 mg/kg/day i.p. × 10 days
  mortality: 0%
[4]; 5 mg/kg/day i.p. × 10 days
  mortality: 70%
[4]; 10 mg/kg/day i.p. × 10 days
  mortality: 100%
CDF1 mice; 1 mg/kg/day i.p. group
  Body weight, Day 0: 21.9 g
CDF1 mice; 1 mg/kg/day i.p. × 10 days
  Number of survived animals, Day 4: 10
  Number of survived animals, Day 5: 10
  Number of survived animals, Day 6: 10
  Number of survived animals, Day 7: 10
  Number of survived animals, Day 8: 10
  Number of survived animals, Day 10: 10
CDF1 mice; 1 mg/kg/day i.p.
  Body weight, Day 5: 23.5 g
  Body weight, Day 10: 24.5 g
CDF1 mice; 5 mg/kg/day i.p. group
  Body weight, Day 0: 21.6 g
CDF1 mice; 5 mg/kg/day i.p. × 10 days
  Number of survived animals, Day 4: 10
  Number of survived animals, Day 5: 9
  Number of survived animals, Day 6: 9
  Number of survived animals, Day 7: 8
  Number of survived animals, Day 8: 3
  Number of survived animals, Day 10: 3
CDF1 mice; 5 mg/kg/day i.p.
  Body weight, Day 5: 21.0 g
  Body weight, Day 10: 15.8 g
CDF1 mice; 10 mg/kg/day i.p. group
  Body weight, Day 0: 21.8 g
CDF1 mice; 10 mg/kg/day i.p. × 10 days
  Number of survived animals, Day 4: 10
  Number of survived animals, Day 5: 9
  Number of survived animals, Day 6: 8
  Number of survived animals, Day 7: 3
  Number of survived animals, Day 8: 0
  Number of survived animals, Day 10: 0
CDF1 mice; 10 mg/kg/day i.p.
  Body weight, Day 5: 17.7 g
CDF1 mice; i.p. 10 days, in words
  survival in repeated administration: some animals in the group given adriamycin died
CDF1 mice; i.p. 10 days, in words, vs control
  growth / body weight in repeated administration: growth was inferior to the control
[5]
  IC50: 0.53 µg/mL (≈ 0.975 µM)
P388 [6]; [7]
  T/C: 120%
  average survival days: 12.4 days
P388 [6]; [8]
  T/C: 81%
  average survival days: 8.4 days
P388 [6]; [9]
  T/C: 76%
  average survival days: 7.8 days
P388 [6]; P388-transplanted mice, adriamycin 1 mg/kg/day vs 0406TP-1
  therapeutic effect (improvement in survival rate): same degree of therapeutic effect
P388 [6]; more than 5 mg/kg body weight/day, due to its toxicity
  therapeutic effect at high dosage: did not show therapeutic effect
P388/ADR; [10]
  T/C: 96%
  average body weight after 10 days: 23.5 g
  average survival days: 10.7 days
P388/ADR; [11]
  T/C: 63%
  average survival days: 7.0 days
P388/ADR; [12]
  T/C: 68%
  average survival days: 7.5 days
P388/ADR; P388/ADR-transplanted mice
  therapeutic effect: did not show therapeutic effect
